Test results as given in article PMC11299231 (Steroids, 2024).
Where two headings read alike, the source gives them in different places.

How the values were obtained:
[1] = tested on: HT-29; experiment: Antiproliferative activity assay; assay type: cell-based, human; conditions: read-out: IC50 ± SEM, HT-29
[2] = tested on: PC3 (AR-); experiment: Antiproliferative activity assay; assay type: cell-based, human; conditions: for IC50: 48 h, read-out: IC50 ± SEM, PC3 (AR−)
[3] = tested on: T84 wt; experiment: Antiproliferative activity assay; assay type: cell-based, human; conditions: for IC50: 48 h, read-out: IC50 ± SEM, T84 wt
[4] = tested on: HaCaT; experiment: Antiproliferative activity assay; assay type: cell-based, human; conditions: for IC50: 48 h, read-out: IC50 ± SEM, HaCaT
[5] = tested on: DU145 (AR-); experiment: Antiproliferative activity assay; assay type: cell-based, human; conditions: for IC50: read-out: IC50 ± SEM, DU145 (AR−)
[6] = tested on: M21; experiment: Antiproliferative activity assay; assay type: cell-based, human; conditions: read-out: IC50 ± SEM, M21
[7] = biological target: T1, CYP3A4 (Homo sapiens, UniProt P08684); conditions: read-out: IC50, BFC debenzylation activity of CYP3A4; soluble reconstituted system, 37 °C, BFC substrate
T1 sequence (P08684 whole entry): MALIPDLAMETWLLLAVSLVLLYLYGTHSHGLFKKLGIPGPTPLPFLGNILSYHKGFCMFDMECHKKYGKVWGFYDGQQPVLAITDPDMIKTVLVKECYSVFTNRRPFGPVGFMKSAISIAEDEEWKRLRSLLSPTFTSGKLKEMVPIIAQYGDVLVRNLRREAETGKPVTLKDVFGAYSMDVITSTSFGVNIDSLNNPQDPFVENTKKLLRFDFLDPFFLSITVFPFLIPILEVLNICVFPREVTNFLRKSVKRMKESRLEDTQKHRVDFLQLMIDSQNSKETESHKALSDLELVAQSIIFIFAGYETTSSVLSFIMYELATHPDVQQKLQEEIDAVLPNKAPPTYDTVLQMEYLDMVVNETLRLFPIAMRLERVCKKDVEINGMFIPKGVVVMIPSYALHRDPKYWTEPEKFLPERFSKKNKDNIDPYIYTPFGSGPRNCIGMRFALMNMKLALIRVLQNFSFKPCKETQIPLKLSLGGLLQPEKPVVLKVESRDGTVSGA

[8] = biological target: T1, CYP3A4; conditions: Soret band blue shift, recombinant CYP3A4
[9] = tested on: LNCaP (AR + ); experiment: Antiproliferative activity assay; assay type: cell-based, human; conditions: read-out: IC50 ± SEM, LNCaP (AR + ); prostate adenocarcinoma cells, 48 h, SRB
[10] = tested on: MDA-MB-231 (ER-); experiment: Antiproliferative activity assay; assay type: cell-based, human; conditions: read-out: IC50 ± SEM, MDA-MB-231 (ER−)
[11] = tested on: MCF7 (ER + ); experiment: Antiproliferative activity assay; assay type: cell-based, human; conditions: read-out: IC50 ± SEM, MCF7 (ER + )
[12] = breast carcinoma cells, 48 h, SRB
[13] = at the maximum concentration tested (5 μM)
[14] = at the maximal concentration tested (5 μM)

Q: `CC(O)(CS(=O)(=O)c1ccc(F)cc1)C(=O)Nc1ccc(C#N)c(C(F)(F)F)c1` (centres unmarked) [Bicalutamide, bicalutamide, reference compound] was tested. Which IC50 ([1]; Homo sapiens, HT-29, 48 h) did it give?
A: 42 ± 2 µM

Q: What about the IC50 ([2]; Homo sapiens, PC3/AR) of the same compound?
A: 62 ± 3 µM

Q: What about the IC50 ([3]; Homo sapiens) of the same compound?
A: 56 ± 2 µM

Q: And the IC50 ([4]; Homo sapiens, HaCaT)?
A: 95 ± 5 µM

Q: What about the IC50 ([5]; Homo sapiens, DU-145, 48 h) of the same compound?
A: 52 ± 1 µM

Q: What about the IC50 ([6]; Homo sapiens, M21, 48 h) of the same compound?
A: 49 ± 1 µM

Q: Which results are given for `C[C@]12CC[C@H]3[C@@H]([C@H](C/C=C/Cn4cc([C@]5(O)CC[C@H]6[C@@H]7CCc8cc(O)ccc8[C@H]7CC[C@@]65C)nn4)CC4=CC(=O)CC[C@@]43C)[C@@H]1CC[C@@H]2O` [Compound 1, (E)-17β-hydroxy-7α-{4-[4-(estradiol-17α-yl)-[1,2,3]triazol-1-yl]-but-2-enyl}−4-androsten-3-one]?
A: IC50 [7]: > 5 µM; high-spin shift [8]: 23%; IC50 [9]: > 5 µM; IC50 [10, 12]: > 5 µM; IC50 ([1]; colon carcinoma cells, 48 h, SRB): 3.5 ± 0.1 µM; antiproliferative effect on PC3 (AR-) cells [2, 13]: no effect; IC50 ([2]; prostate adenocarcinoma cells, SRB): > 5 µM; IC50 [11, 12]: 4.9 ± 0.4 µM; antiproliferative activity on T84 wt cells [3, 14]: inactive; IC50 ([3]; colon adenocarcinoma cells, SRB): > 5 µM; antiproliferative activity on HaCaT cells [4, 14]: inactive; IC50 ([4]; normal immortalized human keratinocytes, SRB): > 5 µM; antiproliferative effect on DU145 (AR-) cells [5, 13]: no effect; IC50 ([5]; prostate adenocarcinoma cells, 48 h, SRB): > 5 µM; IC50 ([6]; melanoma cells, 48 h, SRB): 2.3 ± 0.1 µM

Q: `CC/C(=C(\c1ccc(O)cc1)c1ccc(OCCN(C)C)cc1)c1ccccc1` [Compound 4-OHT, 4-hydroxytamoxifen, reference compound] was tested. Which IC50 ([10]; Homo sapiens, MDA-MB-231, 48 h) did it give?
A: 7 ± 1 µM

Q: And the IC50 ([1]; Homo sapiens, HT-29, 48 h)?
A: 0.9 ± 0.2 µM

Q: What about the IC50 ([2]; Homo sapiens, PC3/AR) of the same compound?
A: 13 ± 1 µM

Q: What about the IC50 ([11]; Homo sapiens, MCF7, 48 h) of the same compound?
A: 0.013 ± 0.005 µM

Q: And the IC50 ([3]; Homo sapiens)?
A: 6.9 ± 0.3 µM

Q: And the IC50 ([4]; Homo sapiens, HaCaT)?
A: 10.4 ± 0.6 µM

Q: What about the IC50 ([5]; Homo sapiens, DU-145, 48 h) of the same compound?
A: 13 ± 1 µM

Q: What about the IC50 ([6]; Homo sapiens, M21, 48 h) of the same compound?
A: 4.2 ± 0.2 µM
